Test [1] concerns the target T1, EED (1-441)-His protein (Homo sapiens, UniProt O75530).
T1 construct: 30 nM EED (1-441)-His protein
Description: EED-H3K27Me3 peptide competition binding assay by AlphaScreen. The following applies: read-out: (a) IC50, EED Alphascreen binding Qualified. Here is the method: EED-H3K27Me3 Peptide Competition Binding Assay by AlphaScreen (α-Screen)
To assess the compounds' potency in the EED-H3K27Me3 competition binding assay, compounds were serially diluted 3-fold in DMSO to obtain a total of twelve concentrations. Then compounds at each concentration (75 nL of each) were transferred by Mosquito into a 384-well Perkin Elmer ProxiPlate 384 plus plates. 8 uL of solutions containing 30 nM EED (1-441)-His protein and 15 nM biotin-H3K27Me3 (19-33) peptide in the buffer (25 mM HEPES, pH 8, 0.02% Tween-20, 0.5% BSA) were added to the wells and then incubated with compound for 20 min. AlphaScreen detection beads mix was prepared immediately before use by mixing nickel chelate acceptor beads and streptavidin donor beads in a 1:1 ratio (Perkin Elmer, Product No. 6760619C/M/R) into the buffer described above. Then 4 μL of detection beads mix was added to the plate and incubate in the dark at the rt for 1 h. The final concentration of donor and acceptor beads was 10 μg/mL for each. Plates were read on EnVision (PerkinElmer) using the AlphaScreen setting adapted for optimal signal detection with a 615 nm filter, after sample excitation at 680 nm. The emission signal at 615 nm was used to quantify compounds inhibition. AlphaScreen signals were normalized based on the reading coming from the positive (maximum signal control) and negative controls (minimum signal control) to give percentage of activities left. The data were then fit to a dose response equation using the program Helios (Novartis) to get the IC50 values. Helios is a Novartis in-house assay data analysis software using the methods described by Normolle, D. P., Statistics in Medicine, 12:2025-2042 (1993); Formenko, I. et al, Computer Methods and Programs in Biomedicine, 82, 31-37 (2006); Sebaugh, J. L., Pharmaceutical Statistics, 10:128-134 (2011); Kelly, C. et al., Biometrics, 46(4):1071-1085 (1990); and Kahm, M. et al., Journal of Statistical Software, 33 (7): (2010) (grofit: Fitting Biological Growth Curves with R, pages 1-21, available at http://www.jstatsoft.org/).
(In general: Alpha assays give light when donor and acceptor beads are brought close together.)

Test [2] relates to H3K27 methylation in G401 cell. Description: ELISA (H3K27 methylation) assay in G401 cells. The format is cell-based, human. The settings on record: Homo sapiens, G-401, read-out: (c) IC50, ELISA Qualified. Here is the method: Compounds of the present invention were assessed for their ability to inhibit PRC2 activity in a pentameric complex of EZH2, SUZ12, EED, Rbap48 and AEBP in biochemical assays. The ability of compounds of the present invention to inhibit cellular activity of PRC2 was assessed by analysing histone H3 lysine 27 methylation in human cell lines. The ability of compounds of the present invention to inhibit cancers was derived from their ability to modulate activity in human cancer cell lines bearing specific dependence to PRC2 activity to maintain cancerous growth.
ELISA (H3K27 Methylation) Assay
Representative compounds of the present invention were serially and separately diluted 3-fold in DMSO to obtain a total of eight or twelve concentrations. Then the compounds were added to G401 cell cultured in 384-well plate at 1:500 dilution to obtain the highest concentration of 20 μM. The cells were further cultured for 48 h before ELISA procedure.
Histone extraction: Cells, in 384-well plate, were washed with PBS (10×PBS buffer (80 g NaCl (Sigma, S3014), 2 g KCl (Sigma, 60128), 14.4 g Na2HPO4 (Sigma, S5136), 2.4 g KH2PO4 (Sigma, P9791) to 1 L water, pH to 7.4) and lysed with the addition of lysis buffer (0.4N HCl; 45 μL per well). The plate was gently agitated at 4° C. for 30 min. The cell lysate was neutralized with neutralization buffer (0.5 M sodium phosphate dibasic, pH 12.5, 1 mM DTT; 36 μL per well). The plate was agitated to ensure the lysates were well mixed prior to the ELISA protocol.
ELISA protocol: Cell lysates were transferred to the wells of a 384-well plate and the final volume was adjusted to 50 μL per well with PBS. The plate was sealed, centrifuged at 2,000 rpm for 2 min and incubated at 4° C. for about 16 h. The plate was washed with TBST buffer (1×TBS (10×TBS: 24.2 g Tris (Sigma, T6066), 80 g NaCl (Sigma, S3014) to 1 L of water and adjust pH to 7.6 with HCl) with 0.1% Tween-20). Blocking buffer (TBST, 5% BSA; 50 μL per well) was added and the plate was incubated for 1 h at rt. The blocking buffer was removed and primary antibody was added (30 μL per well). The following dilutions were performed with blocking buffer: for anti-H3K27me3 antibody (Cell Signaling Technology, #9733), dilution was 1:1000; for anti-H3K27me2 antibody (Cell Signaling Technology, #9288), dilution was 1:100; for anti-H3 antibody (Abcam, Cat #24834), dilution was 1:1000. The primary antibody was incubated in the plate at rt for 1 h. The wells were washed with TBST and incubated with secondary antibody for 1 h at rt. For secondary antibodies, the following dilutions were carried out with blocking buffer: anti-rabbit antibody (Jackson ImmunoResearch, #111-035-003), dilution was 1:2000; and anti-mouse antibody (Cell signaling technology, #7076), dilution was 1:1000. After 1 h of incubation at rt, the wells were washed with TBST. ECL substrate (Pierce, #34080) was added at 30 μL per well and the plates were centrifuged at 2,000 rpm for 2 min. The signal was read using a PerkinElmer Envision Reader. The H3K27 methylation readouts were normalized using H3 signal and then percentage inhibition was calculated against the samples treated with DMSO. The data were then fit to a dose response curve using the program Helios to get the IC50 values of the test compound.
(An ELISA detects its analyte on a solid surface through an enzyme-linked reagent.)

In US10689378B2, “Triazolopyridine compounds and uses thereof” (Novartis AG, priority 2016, dated 2020) one finds IC50 data, which are given here for 19 compounds.

The term IC50 denotes the point on the concentration scale where inhibition reaches its midpoint.

T1 sequence (O75530 whole entry): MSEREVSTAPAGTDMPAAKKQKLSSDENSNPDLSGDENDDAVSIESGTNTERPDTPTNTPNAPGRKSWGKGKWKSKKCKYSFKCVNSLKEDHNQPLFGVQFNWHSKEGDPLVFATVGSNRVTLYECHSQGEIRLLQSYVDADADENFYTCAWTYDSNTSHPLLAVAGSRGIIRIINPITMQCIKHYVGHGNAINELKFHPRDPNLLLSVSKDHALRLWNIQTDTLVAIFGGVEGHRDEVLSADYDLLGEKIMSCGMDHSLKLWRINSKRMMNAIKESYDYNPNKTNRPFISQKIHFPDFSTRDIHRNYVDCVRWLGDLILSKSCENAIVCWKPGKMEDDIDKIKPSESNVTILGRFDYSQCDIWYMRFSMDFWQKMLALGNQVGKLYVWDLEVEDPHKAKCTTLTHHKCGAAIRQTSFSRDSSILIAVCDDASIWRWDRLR

Turning to `COc1cc(F)ccc1CNc1ccc(-c2cnc(N3CCN(C(C)C)CC3)c(Cl)c2)c2nncn12` [Example 97, 8-(5-chloro-6-(4-isopropylpiperazin-1-yl)pyridin-3-yl)-N-(4-fluoro-2-methoxybenzyl)-[1,2,4]triazolo[4,3-a] pyridin-5-amine], the figures for the IC50 in test [1] and in test [2] were 105 nM and 776 nM, respectively.
For `COc1cc(CNc2ccc(-c3ccc(CN(C)C)cc3)c3nncn23)c(F)cc1F` [Example 98, N-(2,4-difluoro-5-methoxybenzyl)-8-(4-((dimethylamino)methyl)phenyl)-[1,2,4]triazolo[4,3-a] pyridin-5-amine], in that order: 359 nM and 287 nM.
The corresponding values for `COc1ccc(F)c(CNc2ccc(-c3ccncc3)c3nncn23)c1` [Example 99, N-(2-fluoro-5-methoxybenzyl)-8-(pyridin-4-yl)-[1,2,4]triazolo[4,3-a] pyridin-5-amine] are 255 nM and 385 nM.
For `COc1cc(F)c(F)cc1CNc1ccc(-c2ccc(CN(C)C)cc2)c2nncn12` [Example 103, N-(4,5-difluoro-2-methoxybenzyl)-8-(4-((dimethylamino)methyl)phenyl)-[1,2,4]triazolo[4,3-a] pyridin-5-amine], in that order: 2860 nM and 8210 nM.
As for `COc1cc(F)ccc1CNc1ccc(-c2cnc(N3CCN(C(C)C)CC3)nc2)c2nncn12` [Example 104, N-(4-fluoro-2-methoxybenzyl)-8-(2-(4-isopropylpiperazin-1-yl)pyrimidin-5-yl)-[1,2,4]triazolo[4,3-a] pyridin-5-amine], the IC50 in test [1] amounted to 160 nM; in test [2], 132 nM.
For the compound `COc1ccccc1CNc1ccc(-c2c(C)nn(C)c2C)c2nncn12` [Example 110, N-(2-methoxybenzyl)-8-(1,3,5-trimethyl-1H-pyrazol-4-yl)-[1,2,4]triazolo[4,3-a] pyridin-5-amine], the IC50 in test [1] is 127 nM; in test [2] it was 74.2 nM.
As for `COc1ccc(F)cc1CNc1ccc(-c2ccc(S(C)(=O)=O)nc2)c2nncn12` [Example 115, N-(5-fluoro-2-methoxybenzyl)-8-(6-(methylsulfonyl)pyridin-3-yl)-[1,2,4]triazolo[4,3-a] pyridin-5-amine], the results for the IC50 in test [1] and in test [2] were 831 nM and 696 nM, respectively.
The corresponding values for `COc1ccc(F)cc1CNc1ccc(-c2ccc(S(C)(=O)=O)cc2)c2nncn12` [Example 116, N-(5-fluoro-2-methoxybenzyl)-8-(4-(methylsulfonyl)phenyl)-[1,2,4]triazolo[4,3-a]pyridin-5-amine] are 276 nM and 748 nM.
Turning to `COc1ccc(F)cc1CNc1ccc(-c2ccncc2)c2nncn12` [Example 117, N-(5-fluoro-2-methoxybenzyl)-8-(pyridin-4-yl)-[1,2,4]triazolo[4,3-a]pyridin-5-amine], the IC50 amounted to 846 nM in test [1] and 895 nM in test [2].
In the case of `COc1ccc(F)cc1CNc1ccc(-c2cccnc2)c2nncn12` [Example 118, N-(5-fluoro-2-methoxybenzyl)-8-(pyridin-3-yl)-[1,2,4]triazolo[4,3-a]pyridin-5-amine], the IC50 in test [1] was determined as 1260 nM; in test [2], 1270 nM.
For `COc1c(F)cccc1CNc1ccc(-c2ccc(S(C)(=O)=O)cc2)c2nncn12` [Example 119, N-(3-fluoro-2-methoxybenzyl)-8-(4-(methylsulfonyl)phenyl)-[1,2,4]triazolo[4,3-a]pyridin-5-amine], in that order: 677 nM and 5140 nM.
Turning to `COc1ccc(F)c(CNc2ccc(-c3ccc(S(C)(=O)=O)cc3)c3nncn23)c1` [Example 120, N-(2-fluoro-5-methoxybenzyl)-8-(4-(methylsulfonyl)phenyl)-[1,2,4]triazolo[4,3-a]pyridin-5-amine], the IC50 amounted to 244 nM in test [1] and 190 nM in test [2].
The corresponding values for `COc1ccc(F)c(CNc2ccc(-c3cccnc3)c3nncn23)c1` [Example 121, N-(2-fluoro-5-methoxybenzyl)-8-(pyridin-3-yl)-[1,2,4]triazolo[4,3-a]pyridin-5-amine] are 680 nM and 299 nM.
Take `COc1ccc(F)c(CNc2ccc(-c3ccc(S(C)(=O)=O)nc3)c3nncn23)c1` [Example 122, N-(2-fluoro-5-methoxybenzyl)-8-(6-(methylsulfonyl)pyridin-3-yl)-[1,2,4]triazolo[4,3-a] pyridin-5-amine]: the IC50 was 313 nM in test [1] and 138 nM in test [2].
For `COc1cccc(F)c1CNc1ccc(-c2cnn(C)c2)c2nncn12` [Example 125, N-(2-fluoro-6-methoxybenzyl)-8-(1-methyl-1H-pyrazol-4-yl)-[1,2,4] triazolo[4,3-a]pyridin-5-amine], in that order: 153 nM and 173 nM.
For the compound `COc1cc(F)ccc1CNc1ccc(-c2ccc(NS(C)(=O)=O)c(F)c2)c2nncn12` [Example 129, N-(2-fluoro-4-(5-((4-fluoro-2-methoxybenzyl)amino)-[1,2,4]triazolo[4,3-a]pyridin-8-yl)phenyl)methane sulfonamide], the IC50 amounted to 381 nM in test [1] and 854 nM in test [2].
In the case of `COc1cc(F)ccc1CNc1ccc(-c2ccc(S(C)(=O)=O)nc2)c2nncn12` [Example 134, N-(4-fluoro-2-methoxybenzyl)-8-(6-(methylsulfonyl)pyridin-3-yl)-[1,2,4]triazolo[4,3-a] pyridin-5-amine], the results for the 50% inhibitory concentration (IC50) in test [1] and in test [2] were 177 nM and 538 nM, respectively.
For `COc1ccc(F)cc1CNc1ccc(-c2ccc(S(=O)(=O)C3CCN(C)CC3)cc2)c2nncn12` [Example 135, N-(5-fluoro-2-methoxybenzyl)-8-(4-((1-methylpiperidin-4-yl)sulfonyl)phenyl)-[1,2,4]triazolo[4,3-a] pyridin-5-amine], in that order: 444 nM and 279 nM.
With `COc1c(F)cccc1CNc1ccc(-c2ccc(S(C)(=O)=O)nc2)c2nncn12` [Example 136, N-(3-fluoro-2-methoxybenzyl)-8-(6-(methylsulfonyl)pyridin-3-yl)-[1,2,4]triazolo[4,3-a] pyridin-5-amine], the IC50 in test [1] is 2880 nM; in test [2], 11400 nM.
